Experimental data as given in ChEMBL document CHEMBL1150457, “-hydroxyamide derived aminodiols as potent inhibitors of hiv protease” (Bioorg Med Chem Lett, 1995).

Experiments:
[1] = tested on: Human immunodeficiency virus 1; assay: Concentration required to inhibit HIV-1 virus replication by 50% as determined by XTT; type: functional; conditions: read-out: ED50 (the source's name)
[2] = target: T1, Human immunodeficiency virus type 1 protease (Human immunodeficiency virus 1, UniProt Q72874); assay: In vitro inhibition of HIV-1 protease.
[3] = target: T1, Human immunodeficiency virus type 1 protease; assay: Inhibition constant against HIV protease was determined

SMILES | EC50 [1] [nM] | IC50 [2] [nM] | EC50 ([1]; Human immunodeficiency virus 1) [nM] | Ki [3] [nM]
CC(C)(C)OC(=O)N[C@@H](Cc1ccccc1)[C@H](O)CNC[C@@H](O)[C@H](Cc1ccccc1)NC(=O)C(C)(O)C(C)(C)CO (stereo in doubt; form 1) | 110 | 120 | – | –
CC(C)(C)OC(=O)N[C@@H](Cc1ccccc1)[C@H](O)CNC[C@@H](O)[C@H](Cc1ccccc1)NC(=O)C1(O)CCCC1(C)C (single isomer, unassigned; isomer B) | 375 | 250 | – | –
CC(C)(C)OC(=O)N[C@@H](Cc1ccccc1)[C@H](O)CNC[C@@H](O)[C@H](Cc1ccccc1)NC(=O)C1(O)CCCC1(C)C (stereo in doubt) | 30 | 15 | – | –
CC(C)(C)OC(=O)N[C@@H](Cc1ccccc1)[C@H](O)CNC[C@@H](O)[C@H](Cc1ccccc1)NC(=O)C(O)(CO)C(C)(C)C (stereo in doubt) | – | 60 | 25 | –
CC(C)(C)OC(=O)N[C@@H](Cc1ccccc1)[C@H](O)CNC[C@@H](O)[C@H](Cc1ccccc1)NC(=O)[C@@H](O)C(C)(C)C | – | 1200 | – | –
CC(C)(C)OC(=O)N[C@@H](Cc1ccccc1)[C@H](O)CNC[C@@H](O)[C@H](Cc1ccccc1)NC(=O)[C@H](O)C(C)(C)C | – | 50 | 55 | –
CC(C)(C)OC(=O)N[C@@H](Cc1ccccc1)[C@H](O)CNC[C@@H](O)[C@H](Cc1ccccc1)NC(=O)C1(O)COCC1(C)C (stereo in doubt; form 1) | – | 3500 | – | –
CC(C)(C)OC(=O)N[C@@H](Cc1ccccc1)[C@H](O)CNC[C@@H](O)[C@H](Cc1ccccc1)NC(=O)C(O)(CO)C(C)(C)C (single isomer, unassigned; isomer B) | – | 10000 | – | –
CC(C)(C)OC(=O)N[C@@H](Cc1ccccc1)[C@H](O)CNC[C@@H](O)[C@H](Cc1ccccc1)NC(=O)[C@@H](O)c1ccccc1 | – | > 10000 | – | –
CC(C)(C)OC(=O)N[C@@H](Cc1ccccc1)[C@H](O)CNC[C@@H](O)[C@H](Cc1ccccc1)NC(=O)C(O)C(F)(F)F (stereo in doubt) | – | 2200 | – | –
CC(C)(C)OC(=O)N[C@@H](Cc1ccccc1)[C@H](O)CNC[C@@H](O)[C@H](Cc1ccccc1)NC(=O)[C@@](C)(O)c1ccccc1 | – | 260 | 1350 | –
CC(C)(C)OC(=O)N[C@@H](Cc1ccccc1)[C@H](O)CNC[C@@H](O)[C@H](Cc1ccccc1)NC(=O)OC(C)(C)C | – | – | 80 | 100
CC(C)(C)OC(=O)N[C@@H](Cc1ccccc1)[C@H](O)CNC[C@@H](O)[C@H](Cc1ccccc1)NC(=O)C(C)(O)C(C)(C)CO (stereo in doubt; form 2) | – | 130 | 160 | –
CC(C)(C)OC(=O)N[C@@H](Cc1ccccc1)[C@H](O)CNC[C@@H](O)[C@H](Cc1ccccc1)NC(=O)[C@](C)(O)C(C)(C)C | – | 900 | 1380 | –
CC(C)(C)OC(=O)N[C@@H](Cc1ccccc1)[C@H](O)CNC[C@@H](O)[C@H](Cc1ccccc1)NC(=O)[C@](C)(O)c1ccccc1 | – | 6500 | – | –
CC(C)(C)OC(=O)N[C@@H](Cc1ccccc1)[C@H](O)CNC[C@@H](O)[C@H](Cc1ccccc1)NC(=O)[C@@](C)(O)C(C)(C)C | – | 40 | 60 | 24
CC(C)(C)OC(=O)N[C@@H](Cc1ccccc1)[C@H](O)CNC[C@@H](O)[C@H](Cc1ccccc1)NC(=O)C1(O)COCC1(C)C (stereo in doubt; form 2) | – | 220 | 230 | –
CC(C)(C)OC(=O)N[C@@H](Cc1ccccc1)[C@H](O)CNC[C@@H](O)[C@H](Cc1ccccc1)NC(=O)[C@H](O)c1ccccc1 | – | 320 | 650 | –
CC(C)(C)CC(=O)N[C@@H](Cc1ccccc1)[C@H](O)CNC[C@@H](O)[C@H](Cc1ccccc1)NC(=O)OC(C)(C)C | – | – | 1200 | –
CC(C)(C)OC(=O)N[C@@H](Cc1ccccc1)[C@H](O)CNC[C@@H](O)[C@H](Cc1ccccc1)NC(=O)C(C)(C)O | – | 450 | 970 | –
CC(C)(C)OC(=O)N[C@@H](Cc1ccccc1)[C@H](O)CNC[C@@H](O)[C@H](Cc1ccccc1)NC(=O)C(O)C(F)(F)F (single isomer, unassigned; isomer A) | – | 40 | 60 | –
